The source made the active and inactive calls. No cut-off for these calls is given here.
Experiments:
SH-SY5Y [1] = assay: Neuroprotective activity against corticosterone-induced cytotoxicity in human SH-SY5Y cells assessed as rescue of cell viability at 20 uM preincubated with compound for 24 hrs followed by corticosterone stimulation and measured after 48 hrs by MTT assay (reference value: 41%); format: functional; details: time 72 hrs
[2] = Downregulation of corticosterone release in human SH-SY5Y cells at 10 uM incubated for 2 hrs by ELISA; format: functional
SH-SY5Y [3] = assay: Neuroprotective activity against corticosterone-induced cytotoxicity in human SH-SY5Y cells assessed as rescue of cell viability at 10 uM preincubated with compound for 72 hrs followed by corticosterone stimulation and measured after 48 hrs by MTT assay relative to control; format: functional; details: time 120 hrs
SH-SY5Y [4] = assay: Neuroprotective activity against corticosterone-induced cytotoxicity in human SH-SY5Y cells assessed as […] at 10 uM preincubated with compound for 2 hrs followed by corticosterone addition and measured 2 hrs after replacement with fresh media by ELISA; format: functional
SH-SY5Y [5] = assay: Cytotoxicity against human SH-SY5Y cells assessed as reduction in cell viability at 1 to 50 uM measured after 48 hrs by MTT assay; format: toxicity, cell-based; details: dose 1-50 µM
SH-SY5Y [6] = assay: Neuroprotective activity against corticosterone-induced cytotoxicity in human SH-SY5Y cells assessed as rescue of cell viability at 10 uM preincubated with compound for 96 hrs followed by corticosterone stimulation and measured after 48 hrs by MTT assay relative to control; format: functional; details: time 144 hrs
SH-SY5Y [7] = assay: Neuroprotective activity against corticosterone-induced cytotoxicity in human SH-SY5Y cells assessed as rescue of cell viability at 10 uM preincubated with compound for 24 hrs followed by corticosterone stimulation and measured after 48 hrs by MTT assay (reference value: 41%); format: functional; details: time 72 hrs
SH-SY5Y [8] = assay: Cytotoxicity against human SH-SY5Y cells assessed as reduction in cell viability at 10 uM measured at 24 to 96 hrs by MTT assay; format: toxicity, cell-based; details: time 24-96 hrs
[9] = Upregulation of BDNF expression in human SH-SY5Y cells at 10 uM incubated for 2 hrs by ELISA; format: functional
SH-SY5Y [10] = assay: Neuroprotective activity against corticosterone-induced cytotoxicity in human SH-SY5Y cells assessed as BDNF concentration at 10 uM preincubated with compound for 2 hrs followed by corticosterone addition and measured 2 hrs after replacement with fresh media by ELISA (reference value: 5 pg/ml); format: functional
SH-SY5Y [11] = assay: Neuroprotective activity against corticosterone-induced cytotoxicity in human SH-SY5Y cells assessed as rescue of cell viability at 10 uM preincubated with compound for 24 hrs followed by corticosterone stimulation and measured after 48 hrs by MTT assay relative to control; format: functional; details: time 72 hrs
SH-SY5Y [12] = assay: Neuroprotective activity against corticosterone-induced cytotoxicity in human SH-SY5Y cells assessed as rescue of cell viability at 5 uM preincubated with compound for 24 hrs followed by corticosterone stimulation and measured after 48 hrs by MTT assay (reference value: 41%); format: functional; details: time 72 hrs
SH-SY5Y [13] = assay: Neuroprotective activity against corticosterone-induced cytotoxicity in human SH-SY5Y cells assessed as rescue of cell viability at 10 uM preincubated with compound for 48 hrs followed by corticosterone stimulation and measured after 48 hrs by MTT assay relative to control; format: functional; details: time 96 hrs
SH-SY5Y [14] = assay: Neuroprotective activity against corticosterone-induced cytotoxicity in human SH-SY5Y cells assessed as BDNF concentration at 5 nM preincubated with compound for 2 hrs followed by corticosterone addition and measured 2 hrs after replacement with fresh media by ELISA (reference value: 5 pg/ml); format: functional
SH-SY5Y [15] = assay: Cytotoxicity against human SH-SY5Y cells assessed as reduction in cell viability at 5 nM measured after 48 hrs by MTT assay; format: toxicity, cell-based; details: 0.005 µM
[16] = Upregulation of BDNF expression in human SH-SY5Y cells at 5 nM incubated for 2 hrs by ELISA; format: functional
SH-SY5Y [17] = assay: Neuroprotective activity against corticosterone-induced cytotoxicity in human SH-SY5Y cells assessed as rescue of cell viability at 5 nM preincubated with compound for 24 hrs followed by corticosterone stimulation and measured after 48 hrs by MTT assay (reference value: 41%); format: functional; details: time 72 hrs
SH-SY5Y [18] = assay: Neuroprotective activity against corticosterone-induced cytotoxicity in human SH-SY5Y cells assessed as rescue of BDNF expression at 20 uM preincubated with compound for 2 hrs followed by corticosterone addition and measured 2 hrs after replacement with fresh media by ELISA (reference value: 5 pg/ml); format: functional, cell-based
SH-SY5Y [19] = assay: Neuroprotective activity against corticosterone-induced cytotoxicity in human SH-SY5Y cells assessed as rescue of cell viability at 20 uM preincubated with compound for 24 hrs followed by corticosterone stimulation and measured after 48 hrs by MTT assay; format: functional, cell-based; details: time 72.0 hrs
SH-SY5Y [20] = assay: Upregulation of BDNF expression in human SH-SY5Y cells at 20 uM incubated for 2 hrs by ELISA; format: functional, cell-based
SH-SY5Y [21] = assay: Neuroprotective activity against corticosterone-induced cytotoxicity in human SH-SY5Y cells assessed as […] at 20 uM preincubated with compound for 2 hrs followed by corticosterone addition and measured 2 hrs after replacement with fresh media by ELISA; format: functional, cell-based
SH-SY5Y [22] = assay: Cytotoxicity against human SH-SY5Y cells assessed as reduction in cell viability at 20 uM measured after 48 hrs by MTT assay; format: toxicity, cell-based
SH-SY5Y [23] = assay: Inhibition of corticosterone release in human SH-SY5Y cells at 20 uM incubated for 2 hrs by ELISA; format: functional, cell-based

Structure (SMILES)	Activity (SH-SY5Y [1]) [%]	Activity [2] [pg/mL]	Activity (SH-SY5Y [3]) [%]	Activity (SH-SY5Y [4]) [pg/mL]	Activity (SH-SY5Y [5])	Activity (SH-SY5Y [6]) [%]	Activity (SH-SY5Y [7]) [%]	Activity (SH-SY5Y [8])	Activity [9] [pg/mL]	Activity (SH-SY5Y [10]) [pg/mL]	Activity (SH-SY5Y [11]) [%]	Activity (SH-SY5Y [12]) [%]	Activity (SH-SY5Y [13]) [%]	further results
CC1=C[C@H]2c3c(O)cc(C)cc3OC(C)(C)[C@@H]2CC1	97	0.22	95	7	Non-Toxic	99	96	Non-Toxic	21	18	89	79	90	
O=c1cc(-c2ccccc2)oc2c(O)c(O)ccc12 [7,8-DIHYDROXYFLAVONE]														Activity (SH-SY5Y [14]): 21 pg/mL; Activity (SH-SY5Y [15]): Non-Toxic; Activity [16]: 19 pg/mL; Activity (SH-SY5Y [17]): 86%
CC1=C[C@@H]2c3c(O)cc(C)cc3OC(C)(C)[C@H]2CC1	101	0.43	102	5	Non-Toxic	104	99	Non-Toxic	29	25	92	83	98	
C=C(C)[C@@H]1CCC(C)=C[C@H]1c1c(O)cc(CCCCC)cc1O [CANNABIDIOL]														Activity (SH-SY5Y [18]): inactive; Activity (SH-SY5Y [19]): Active; Activity (SH-SY5Y [20]): inactive; Activity (SH-SY5Y [21]): inactive; Activity (SH-SY5Y [22]): Non-Toxic; inhibition (SH-SY5Y [23]): inactive

Reference: ChEMBL document CHEMBL5357085, “Synthesis and Evaluation of Natural and Unnatural Tetrahydrocannabiorcol for Its Potential Use in Neuropathologies” (J Nat Prod, 2024)
